Measurements published in patent US11168179B2, “Macromolecular transition metal complexes for treatment of cancer and process for their preparation” (FACULDADE DE CIÉNCIAS DA UNIVERSIDADE DE LISBOA, priority 2014, dated 2021).
Where two headings read alike, the source gives them in different places.

Columns and labels:
[1] = tested on: A2780 ovarian carcinoma cells; assay: MTT cell viability assay, A2780; assay type: cell-based, human; details: 72 h incubation, read-out: IC50 after a 72 h incubation, A2780
Description: (§1) The cultures of human breast (MDA-MB-231; ATCC) and ovarian (A2780, ATCC) carcinoma cell lines, were carried out in DMEM (Gibco) medium containing GlutaMax I (MDA-MB-231) or RPMI (A2780) and were completed with 10% FBS and 1% penicillin-streptomycin and kept at 37° C. in a humidified atmosphere containing 5% de CO2.
(§2) The cell culture was made in flasks containing the medium appropriate to cell proliferation and allowing cell adhesion.
(§3) Upon reaching the required confluence, the cells were harvested through addition of a 0.05% trypsin-EDTA solution (Gibco®). […] For this, the cells were seeded in 200 μl of complete cell medium in 96-well plates. Cell density was 2×10^4 viable cells (MDA-MB-231 and A2780) per well.
(§4) Cells were left to adhere for 24 h, followed by the addition of various dilutions in medium (200 μl) of the test compound. The test compound was first solubilized in DMSO and then in the cell medium and added to the cells at concentrations 1-100 μM. The final DMSO concentrations in the medium were lower than 0.5%. After 24 h and 72 h incubation, 37° C./5% CO2, the medium was substituted by 200 μl of the MTT solution (0.5 mg/ml in phosphate buffer—PBS). After 3-4 h incubation, the MTT solution was removed and the formazan crystals formed by the viable cells were dissolved in DMSO (200 μl). Cell viability was assessed measuring the absorbance at 570 nm, using a plate spectrophotometer.
(§5) The cytotoxicity of the test compound was quantified calculating the drug concentration that inhibits the growth of 50% of cells (IC50) (GraphPad Prism software). The assessment was carried out with at least two independent experiments, each comprising six replicates per concentration. Dose-response curves of cell viability, after a 72 h incubation, are represented in the graphs of the FIGS. 4a and 4b.
Upon reaching the required confluence, the cells were harvested through addition of a 0.05% trypsin-EDTA solution (Gibco®). […] For this, the cells were seeded in 200 μl of complete cell medium in 96-well plates. […]

[2] = tested on: MCF-7 breast adenocarcinoma cells; assay: MTT cell viability assay, MCF-7; assay type: cell-based, human
Description: as §2
For this, the cells were seeded in 200 μl of complete cell medium in 96-well plates.
as §4, with “[…] The cytotoxicity of the test compound” for “Cell viability”, “quantified calculating” for “assessed measuring”, “drug concentration that inhibits the growth of 50% of cells (IC50) (GraphPad Prism software). The assessment was carried out with” for “absorbance”, “least two independent experiments, each comprising six replicates per concentration.” for “570 nm, using a plate spectrophotometer.”
Upon reaching the required confluence, the cells were harvested through addition of a 0.05% trypsin-EDTA solution (Gibco®). […] For this, the cells were seeded in 200 μl of complete cell medium in 96-well plates. […] Cells were left to adhere for 24 h, followed by the addition of various dilutions in medium (200 μl) of the test compound. The test compound was first solubilized in DMSO and then in the cell medium and added to the cells at concentrations 1-100 μM. The final DMSO concentrations in the medium were lower than 0.5%. […] The cytotoxicity of the test compound was quantified calculating the drug concentration that inhibits the growth of 50% of cells (IC50) (GraphPad Prism software). The assessment was carried out with at least two independent experiments, each comprising six replicates per concentration.

[3] = tested on: MDA-MB-231 human breast carcinoma cells; assay: MTT cell viability assay, MDA-MB-231; assay type: cell-based; details: 72 h incubation, read-out: IC50 after a 72 h incubation, MDA-MB-231
Description: as §1, §2, §3, §4, §5

glioma U87 cells = details: literature value (J. Biol. Chem. 1997, 272:14041-14044); read-out: value found in the literature for the glioma line; cited from earlier work
[4] = tested on: human cells of MCF-7 breast cancer; details: 24 h incubation, versus untreated control cells (100%)
Text: The intrinsic pathway is triggered by intracellular or extracellular stress. The signals that are transduced in response to these stimuli converge mainly to the mitochondria. This organelle integrates the cell death stimuli, inducing mitochondrial permeabilization and consequent release of pro-apoptotic molecules present therein.

MCF-7 cancer cell line [5] = details: immunofluorescence, versus control cells
Text: In this immunofluorescence assay, Alexa Fluor 488® phalloidin, which is a high-affinity filamentous actin (F-actin) probe conjugated to the green-fluorescent Alexa Fluor® 488 dye was used. In order to obtain nuclear staining DAPI (blue) was used (FIG. 9).

MCF-7 cancer cell line [6] = details: 48 h of incubation, 10 μM
Text: This assay is widely used to determine if cells are viable, apoptotic, or necrotic through differences in plasma membrane integrity and permeability. All in all, Annexin V/PI is a commonly used approach for studying cell death (Rieger et al. 2011).
Annexin V a marker of early apoptosis. […] Cisplatin was used as a positive control since it is known to induce apoptosis.

[7] = 72 h incubation, read-out: IC50 after a 72 h incubation, MCF-7
[8] = 24 h incubation, read-out: IC50 after a 24 h incubation, MCF-7

## N.N.[Cl][Pt][Cl] [Cisplatin, reference compound]
[1]
  IC50: 2 ± 0.1 µM
[2]; [7]
  IC50: 28 ± 6 µM
[3]
  IC50: 39 ± 5 µM
Glioma U87 cells
  IC50: 130 ± 53 µM

## (2,2′-bipyridine-4,4′-diylbis{methylene}bis(2-{2-(2-hydroxypropanoyloxy)poly(lactic acid)-yl}propanoate)-k^2N,N′)(triphenylphosphane)(η^5-cyclopentadienyl)ruthenium(II) triflate [Compound 5]
[4]
  expression of catalase and SMAC diablo proteins: decrease
[1]
  IC50: 3.4 ± 1.3 µM
MCF-7 cancer cell line [5]
  effect on cytoskeleton (F-actin filaments): cytoskeleton loses its organization
MCF-7 cancer cell line [6]
  percentage of Annexin V stained cells in comparison to the control: increase
  type of cell death induced: apoptosis
[2]; [8]
  IC50: 4.25 ± 1.15 µM
[2]; [7]
  IC50: 4.09 ± 1.97 µM
[3]
  IC50: 2.7 ± 0.55 µM

## [(1,1′-{1,1′-(1,1′-{2,2′-Bipyridine-4,4′-diylbis(methylene)}bis(oxy)bis(1-oxopropane-2,1-diyl))bis(poly(lactic acid)-yl))}bis(oxy)bis(1-oxopropane-2,1-diyl)di(2S,3S,4S,5R,6R)-3,4,5,6-tetrahydroxyoxane-2-carboxylate)-k^2N,N′](triphenylphosphane)(η^5-cyclopentadienyl)-ruthenium(II) triflate [Compound 6]
[4]
  expression of catalase and SMAC diablo proteins: decrease
[1]
  IC50: 2.2 ± 0.85 µM
MCF-7 cancer cell line [5]
  effect on cytoskeleton (F-actin filaments): cytoskeleton loses its organization
MCF-7 cancer cell line [6]
  percentage of Annexin V stained cells in comparison to the control: increase
  type of cell death induced: apoptosis
[2]; [8]
  IC50: 5 ± 1.65 µM
[2]; [7]
  IC50: 4.62 ± 1.15 µM
[3]
  IC50: 5.96 ± 3.25 µM
